Results reported in patent publication US20230105212A1, “BIPHENYL DERIVATIVE INHIBITOR, PREPARATION METHOD THEREFOR AND USE THEREOF” (SHANGHAI HANSOH BIOMEDICAL CO., LTD., priority 2020, published 2023).

Key:
human PD-L1 protein = molecular target: T1, human PD-L1 protein (Homo sapiens, UniProt Q9NZQ7); assay: Thermal shift: melting temperature of PD-L1 protein; format: binding; settings: compound 10 μM, PD-L1 protein 2 μM, Tm minus DMSO vehicle control; read-out: ΔTm (° C.)
T1 construct: purchased Acro Biosystems PD1-H5229
Method in brief: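 Human PD-L1 at 2 μM final was tested in […], 150 mM NaCl with SYPRO Orange, heated 25→95 °C at 0.03 °C/s in a PCR melt-curve run. Tm was taken per treatment; ΔTm is the shift relative to DMSO vehicle.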

[1] = tested on: NFAT-luc2/PD1 Jurkat cells; assay: In vitro cytotoxicity on NFAT-luc2/PD1 Jurkat cells (CellTiter-Glo); format: cell-based; settings: 72 hours; for IC50: Homo sapiens, Jurkat
Procedure: (§1) Test Embodiment 5. In Vitro Cytotoxicity of the Compounds of the Present Disclosure on NFAT-Luc2/PD1 Jurkat Cells and MC38-hPDL1 Cells
(§2) Experimental purpose: To test the in vitro cytotoxicity of compounds on NFAT-luc2/PD1 Jurkat cells and MC38-hPDL1 cells.
(§3) When the cells were cultured to an appropriate degree of confluency, the cells were collected, and the cells was adjusted in an appropriate cell concentration by complete medium, then the cell suspension was plated in a 96-well plate, 90 μL per well, and put in a 37° C., 5% CO2 incubator overnight; compound solutions of different concentrations were prepared by DMSO and medium, and a vehicle control was set; compound solutions were added to a 96-well plate, 10 μL per well, and put in a 37° C., 5% CO2 incubator and cultured for 72 hours. After that, CellTiter-Glo solution was added, the mixture was shaken and mixed evenly, incubated in the dark for 10 minutes, and a BioTek Synergy H1 microplate reader was used for reading.
(§4) Luminescence signal value was used to calculate the inhibition rate, and the concentration and inhibition rate were fitted by nonlinear regression curve using Graphpad Prism software to obtain IC50 values, as shown in the following table: […]

[2] = tested on: CHO-PDL1/Jurkat-PD1 cell pathway; assay: Inhibition of CHO-PDL1/Jurkat-PD1 cell pathway (NFAT luciferase reporter); format: cell-based; settings: for EC50: 6 hours incubation, luciferase signal; for maximal fold induction: relative to the signal value of the non-dosed group, read-out: Maximum induction fold
Procedure: Test Embodiment 3. Inhibitory Effect of the Compounds of the Present Disclosure on CHO-PDL1/Jurkat-PD1 Cell Pathway
Experimental purpose: The purpose of this test embodiment was to test the inhibitory effect of compounds on the CHO-PDL1/Jurkat-PD1 cell pathway.
Experimental method: Two stably transfected cell lines were included in this experiment, CHO-K1 cells stably transfected with PD-L1 and Jurkat cells stably transfected with PD-1 and NFAT luciferase reporter genes. Compounds were incubated with the two cell lines. Then, due to the inhibitory effect on the PD-1/PD-L1 pathway, the activation degree of Jurkat cells changed, so that the level of the reporter gene NFAT in the downstream of Jurkat cells changed, and the level of NFAT was characterized by detecting the signal value of luciferase, so that the inhibitory effect of the test compound on CHO-PDL1/Jurkat-PD1 pathway was characterized.
CHO-PDL1 cells (Promega, #J1252) were cultured to a suitable cell density. After digestion, the cells were resuspended by complete medium to become a suitable density of cell suspension. The cell suspension was plated 100 μL per well on a 96-well plate (Corning, #3610), and placed in a 37° C., 5% CO2 incubator and incubated overnight, and assay medium (RPMI 1640+2% FBS, RPMI 1640 Cat. No.: Gibco, #22400089, FBS Cat. No.: Gibco, #10091148) was used to prepare compound solutions of different concentrations. NFAT-luc2/PD1 Jurkat cells (Promega, #J1252) were collected and resuspended to the appropriate cell density using assay medium. The supernatant of the CHO-PDL1 cell culture plate was aspirated, and 40 μL of the prepared compound solution and 40 μL of resuspended NFAT-luc2/PD1 Jurkat cells were added, and incubated in a 5% CO2 incubator at 37° C. for 6 hours, and the cell plate was taken out, then 40 μL of One-Glo reagent (Promega, #E6120) was added to each well, shaked and mixed well, incubated in the dark at room temperature for 10 minutes, then put into a microplate reader and the luminescence program was used to read the luminescence value of the cell plate.
The EC50 value was fitted according to the compound concentration and the luminescence signal value, and the maximum induction fold of each compound relative to the signal value of the non-dosed group was calculated, as shown in Table 3.

[3] = molecular target: T2, PD-L1 protein on the surface of MC38-hPDL1 tumor cells (Homo sapiens, UniProt Q9NZQ7); assay: Induction of endocytosis of PD-L1 on the surface of tumor cells (flow cytometry); format: cell-based; settings: 16 hours incubation
T2 construct: expressed in transfected cells; host or cells: MC38-hPDL1 (mouse colon cancer cells)
Method in brief: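 MC38-hPDL1 mouse colon cancer cells overexpressing human PD-L1 were exposed to compound dilutions for 16 h at 37 °C. Surface PD-L1 was then stained with PE anti-human CD274 for 30 min at room temperature and measured by flow cytometry. Endocytosis rate versus concentration was fitted by nonlinear regression to give IC50.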

MC38-hPDL1 cells = assay: In vitro cytotoxicity on MC38-hPDL1 cells (CellTiter-Glo); format: cell-based, mouse; settings: for MC38-hPDL1 inhibition rate (%): 72 hours; for IC50: Mus musculus, MC38-hPD-L1, 72 hours
Procedure: as §1, §2, §3, §4

human PD-1/PD-L1 binding = molecular target: T3, human PD-1/PD-L1 binding (Homo sapiens, UniProt Q9NZQ7); assay: Inhibition of human PD-1/PD-L1 binding (TR-FRET/HTRF); settings: TR-FRET, PD-L1-His and PD-1-Fc; read-out: PD-1/PD-L1 binding IC50
T3 construct: PD-L1-His protein (19 to 238 amino acids) (Abcam #ab167713); purchased Abcam (PD-L1-His); R&D (PD-1-Fc) ab167713; 1086-PD
Method in brief: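 PD-L1-His (aa 19–238, diluted to 10 nM) and PD-1-Fc (aa 25–167, diluted to 20 nM) incubated with compounds (10 μM or 1 μM top, 3-fold, 11 doses) 60 min at room temperature, then anti-6HIS Eu cryptate/anti-human IgG-XL665 added for 3 h RT or overnight 4 °C. HTRF 665/620 nm ratio gave inhibition and IC50.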

T2 sequence (Q9NZQ7 19-290): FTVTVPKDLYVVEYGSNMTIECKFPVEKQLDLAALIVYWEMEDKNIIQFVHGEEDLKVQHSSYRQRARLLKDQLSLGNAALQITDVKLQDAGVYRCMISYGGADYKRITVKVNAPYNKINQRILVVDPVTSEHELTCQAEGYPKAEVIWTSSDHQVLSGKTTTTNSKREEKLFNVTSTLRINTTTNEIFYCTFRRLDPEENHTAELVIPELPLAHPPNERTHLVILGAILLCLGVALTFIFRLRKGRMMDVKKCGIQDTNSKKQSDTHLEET
T3 sequence (Q9NZQ7 19-238): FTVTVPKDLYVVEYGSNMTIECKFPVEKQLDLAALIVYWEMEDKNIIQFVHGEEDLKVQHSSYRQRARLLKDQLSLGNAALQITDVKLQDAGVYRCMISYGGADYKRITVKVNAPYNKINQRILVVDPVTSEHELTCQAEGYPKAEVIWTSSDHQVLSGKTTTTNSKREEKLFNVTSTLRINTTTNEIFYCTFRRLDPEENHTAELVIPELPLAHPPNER
T1 sequence (Q9NZQ7 19-238 limits assumed): as the sequence (Q9NZQ7 19-238) above

Compound	ΔTm at 10 µM (human PD-L1 protein) [°C]	Jurkat-PD1 inhibition rate (%) [1]	IC50 [1] [nM]	EC50 [2] [nM]	maximal fold induction [2]	Emax ([3]; MC38-hPDL1 cells, read-out: MC38 maximum endocytosis rate) [%]	IC50 ([3]; inducing endocytosis of PD-L1, MC38-hPDL1 cells, read-out: MC38 IC50) [nM]	MC38-hPDL1 inhibition rate (%) (MC38-hPDL1 cells)	IC50 (MC38-hPDL1 cells) [nM]	IC50 (human PD-1/PD-L1 binding) [nM]
COc1cc(C(=O)Nc2cccc(-c3cccc(NC(=O)c4nc5c(n4C)CCN(C)C5)c3Cl)c2C)ncc1CNc1ccnc(C)n1 [Embodiment 90, N-(2-Chloro-3′-(4-methoxy-5-(((2-methylpyrimidin-4-yl)amino)methyl)picolinamido)-2′-methyl-[1,1′-biphenyl]-3-yl)-1,5-dimethyl-4,5,6,7-tetrahydro-1H-imidazo[4,5-c]pyridine-2-carboxamide]	11	99.0%^	1400	99	3.2	80	9.9	6.8	> 10000	
COc1cc(-c2cccc(-c3cccc(NC(=O)c4nc5c(n4C)CCN(C)C5)c3Cl)c2Cl)ccc1CNCC(=O)O [Embodiment 159, ((2′,2″-Dichloro-3″-(1,5-dimethyl-4,5,6,7-tetrahydro-1H-imidazo[4,5-c]pyridine-2-carboxamido)-3-methoxy-[1,1′:3′,1″-terphenyl]-4-yl)methyl)glycine]		24%	> 10000	45	3.2			5	> 10000	2.2
